Reference: patent publication US20260234124A1, “Substituted Pyrazolyl-Pyridinyl Compounds as Ligand Directed Degraders of IRAK3” (Celgene Corporation, priority 2022, published 2026)

Target: T1, IRAK3-ePL (Homo sapiens, UniProt Q9Y616)
T1 construct: expressed in transfected cells; host or cells: 293T CRBN OE/GSPT1 G575N KI cells, lentiviral transduction, puromycin selection
Assay: IRAK3-ePL overexpressing degradation assay
Format: cell-based
Conditions: IRAK3-ePL Lenti-X 293T CRBN/GSPT1 G575N cells, overnight incubation, top dose 10 μM; for Dmax: HEK-293T, maximum percentage loss of target protein; for DC50: read-out: IRAK3 ePL degradation EC50
Procedure: Example B1. IRAK3-ePL Overexpressing Degradation Assay
Stable cell lines were generated by the following protocol. 3×10^5 Lenti-X 293T cells (Clonetech) were plated in 0.8 mL of media in a 12-well plate and incubated overnight at 37° C./5% CO2. Packaging plasmid (0.4 μg, pMD), envelope plasmid (0.4 μg, pSP), and lentiviral transfer IRAK3-ePL plasmid (0.8 μg, IRAK3 sequence NM_007199.3) were mixed in 0.1 mL of Opti-MEM and incubated for 5 min. Simultaneously, 2.4 μL of Lipofectamine 2000 (Invitrogen) was added to 0.1 mL of Opti-MEM (Gibco) and incubated for 5 min. The plasmid DNA and lipofectamine were combined and the mixture was allowed to incubate for 20 min. DNA:Lipofectamine Opti-MEM mixtures were then added to previously plated cells dropwise and the cells were incubated for ~16 h at 37° C./5% CO2. Following incubation, the media was removed and 1.2 mL of fresh media was added per well. Lenti-X 293T cells were incubated for ~30 h at 37° C./5% CO2. […] Following incubation, media was removed from the Lenti-X 293T wells and passed through a […]. Part of the viral supernatant was used to transduce cells and the rest was stored at −80° C. Viruses were then added individually (0.5 mL virus) to each well of the 293T^CRBN OE/GSPT1 G575N KI cells, followed by addition of polybrene (10 mg/mL Millipore) to each well at a final concentration of 5.0 μg/mL. Cells were incubated for ~24 h at 37° C./5% CO2. After aspirating media off plates, cells were washed with DPBS, trypsinized and plated in a 10 cm dish in 15 mL of media and 1 μg/mL puromycin. Following incubation of cells for ~72 h at 37° C./5% CO2, media was aspirated off plates, and cells were washed with DPBS and trypsinized. The cells were plated in a 15 cm dish in 40 mL of media with 1.0 μg/mL Puromycin (Gibco) and incubated for ~72 h at 37° C./5% CO2. Following incubation, media was removed and cells were washed with DPBS and trypsinized. The majority of cells were resuspended in Invitrogen freezing media and stored away (~6-8×10^6 cells/vial).
IRAK3-ePL cellular dose response curve degradation assays were performed by the following protocol. Compounds to be tested were dispensed into a white 384-well tissue-culture treated plate using an acoustic liquid handler. Dilutions were prepared based on a 25 μL assay volume in duplicate 10 point 3-fold serial dilutions starting with a 10 μM dose. Negative control wells were included, which only contain 0.2% DMSO to calculate 100% signal. Positive control wells containing 30 μM Ataluren (luciferase inhibitor) were included to calculate the background signal level. All wells were backfilled to a final DMSO concentration of 0.2% to ensure DMSO uniformity across wells. IRAK3-ePL expressing cells (IRAK3-ePL Lenti-X 293T^CRBN/GSPT1 G575N) were washed, trypsinized, counted, and resuspended in fresh DMEM (Gibco) to give a cell concentration of 200,000 cells/mL. 25 μL of cells (5,000 cells/well) were dispensed into the wells of the 384-well plate prespotted with compounds in the previous step and incubated overnight at 37° C./5% CO2. Following incubation, the 384-well plate was taken out of the incubator and left at room temperature for 30 min. InCELL hunter reagent was prepared according to manufacturer's instructions (EA reagent, lysis buffer, and substrate reagent in a 1:1:4 ratio, Cat #96-0002, DiscoverX), which was added to the 384-well plate 25 μL per well. Following the incubation of the plate for 1 h at room temperature, the luminescence signal was read using a ViewLux plate reader. Data was processed and analyzed in ActivityBase software. In short, the average luminescence values of the positive control wells were subtracted from the rest of the wells for background correction, and all luminescence values were normalized to the DMSO control wells. The average value of the DMSO control wells was set to equal 100% of the relative IRAK3-ePL protein levels. […]

Dmax [%] | DC50 [µM] | SMILES
59 | 0.105 | C[C@@H](Oc1cc(-c2cnn(C3CCN(C4CCC5(CC4)CCN(C(=O)c4cccc6c4CN(C4CCC(=O)NC4=O)C6=O)CC5)CC3)c2)cnc1N)c1c(Cl)ccc(F)c1Cl (stereo partly drawn) [Compound 21, 3-(4-(9-(4-(4-(6-amino-5-((R)-1-(2,6-dichloro-3-fluorophenyl)ethoxy)pyridin-3-yl)-1H-pyrazol-1-yl)piperidin-1-yl)-3-azaspiro[5.5]undecane-3-carbonyl)-1-oxoisoindolin-2-yl)piperidine-2,6-dione]
74 | 0.055 | C[C@@H](Oc1cc(-c2cnn(C3CCN(C4CCC5(CC4)CCN(C(=O)c4ccc6c(c4)CN(C4CCC(=O)NC4=O)C6=O)CC5)CC3)c2)cnc1N)c1c(Cl)ccc(F)c1Cl (stereo partly drawn) [Compound 20, 3-(5-(9-(4-(4-(6-amino-5-((R)-1-(2,6-dichloro-3-fluorophenyl)ethoxy)pyridin-3-yl)-1H-pyrazol-1-yl)piperidin-1-yl)-3-azaspiro[5.5]undecane-3-carbonyl)-1-oxoisoindolin-2-yl)piperidine-2,6-dione]
70 | 0.173 | C[C@@H](Oc1cc(-c2cnn(C3CCN(CCNC(=O)COc4ccc5c(c4)C(=O)N(C4CCC(=O)NC4=O)C5=O)CC3)c2)cnc1N)c1c(Cl)ccc(F)c1Cl (stereo partly drawn) [Compound 13, N-(2-(4-(4-(6-amino-5-((R)-1-(2,6-dichloro-3-fluorophenyl)ethoxy)pyridin-3-yl)-1H-pyrazol-1-yl)piperidin-1-yl)ethyl)-2-((2-(2,6-dioxopiperidin-3-yl)-1,3-dioxoisoindolin-5-yl)oxy)acetamide]

Continued, molecule first:

SMILES | Dmax [%] | DC50 [µM]
C[C@@H](Oc1cc(-c2cnn(C3CCN(CCOCCOCCOCCNC(=O)COc4cccc5c4C(=O)N(C4CCC(=O)NC4=O)C5=O)CC3)c2)cnc1N)c1c(Cl)ccc(F)c1Cl (stereo partly drawn) [Compound 11, N-(2-(2-(2-(2-(4-(4-(6-amino-5-((R)-1-(2,6-dichloro-3-fluorophenyl)ethoxy)pyridin-3-yl)-1H-pyrazol-1-yl)piperidin-1-yl)ethoxy)ethoxy)ethoxy)ethyl)-2-((2-(2,6-dioxopiperidin-3-yl)-1,3-dioxoisoindolin-4-yl)oxy)acetamide] | 12 | > 10
Cc1ncsc1-c1ccc(CNC(=O)[C@@H]2C[C@@H](O)CN2C(=O)[C@@H](NC(=O)COCCOCCOCCOCCN2CCC(n3cc(-c4cnc(N)c(O[C@H](C)c5c(Cl)ccc(F)c5Cl)c4)cn3)CC2)C(C)(C)C)cc1 [Compound 4, (2S,4R)-1-((S)-17-(4-(4-(6-amino-5-((R)-1-(2,6-dichloro-3-fluorophenyl)ethoxy)pyridin-3-yl)-1H-pyrazol-1-yl)piperidin-1-yl)-2-(tert-butyl)-4-oxo-6,9,12,15-tetraoxa-3-azaheptadecanoyl)-4-hydroxy-N-(4-(4-methylthiazol-5-yl)benzyl)pyrrolidine-2-carboxamide] | 26 | > 10
C[C@@H](Oc1cc(-c2cnn(C3CCN(CCOCCNC(=O)COc4cccc5c4C(=O)N(C4CCC(=O)NC4=O)C5=O)CC3)c2)cnc1N)c1c(Cl)ccc(F)c1Cl (stereo partly drawn) [Compound 9, N-(2-(2-(4-(4-(6-amino-5-((R)-1-(2,6-dichloro-3-fluorophenyl)ethoxy)pyridin-3-yl)-1H-pyrazol-1-yl)piperidin-1-yl)ethoxy)ethyl)-2-((2-(2,6-dioxopiperidin-3-yl)-1,3-dioxoisoindolin-4-yl)oxy)acetamide] | 12 | > 10
Cc1ncsc1-c1ccc(CNC(=O)[C@@H]2C[C@@H](O)CN2C(=O)[C@@H](NC(=O)COCCOCCN2CCC(n3cc(-c4cnc(N)c(O[C@H](C)c5c(Cl)ccc(F)c5Cl)c4)cn3)CC2)C(C)(C)C)cc1 [Compound 2, (2S,4R)-1-((S)-2-(2-(2-(2-(4-(4-(6-amino-5-((R)-1-(2,6-dichloro-3-fluorophenyl)ethoxy)pyridin-3-yl)-1H-pyrazol-1-yl)piperidin-1-yl)ethoxy)ethoxy)acetamido)-3,3-dimethylbutanoyl)-4-hydroxy-N-(4-(4-methylthiazol-5-yl)benzyl)pyrrolidine-2-carboxamide] | 25 | > 10
Cc1ncsc1-c1ccc(CNC(=O)[C@@H]2C[C@@H](O)CN2C(=O)[C@@H](NC(=O)CCCN2CCC(n3cc(-c4cnc(N)c(O[C@H](C)c5c(Cl)ccc(F)c5Cl)c4)cn3)CC2)C(C)(C)C)cc1 [Compound 1, (2S,4R)-1-((S)-2-(4-(4-(4-(6-amino-5-((R)-1-(2,6-dichloro-3-fluorophenyl)ethoxy)pyridin-3-yl)-1H-pyrazol-1-yl)piperidin-1-yl)butanamido)-3,3-dimethylbutanoyl)-4-hydroxy-N-(4-(4-methylthiazol-5-yl)benzyl)pyrrolidine-2-carboxamide] | 8 | > 10
Cc1ncsc1-c1ccc(CNC(=O)[C@@H]2C[C@@H](O)CN2C(=O)[C@@H](NC(=O)COCCOCCOCCN2CCC(n3cc(-c4cnc(N)c(O[C@H](C)c5c(Cl)ccc(F)c5Cl)c4)cn3)CC2)C(C)(C)C)cc1 [Compound 3, (2S,4R)-1-((S)-14-(4-(4-(6-amino-5-((R)-1-(2,6-dichloro-3-fluorophenyl)ethoxy)pyridin-3-yl)-1H-pyrazol-1-yl)piperidin-1-yl)-2-(tert-butyl)-4-oxo-6,9,12-trioxa-3-azatetradecanoyl)-4-hydroxy-N-(4-(4-methylthiazol-5-yl)benzyl)pyrrolidine-2-carboxamide] | 13 | > 10
